Laboratory results: the supplement of paper PMC8882468
“And” between values parts separate entries of the source, which are not always exact repeats. Identical values can stand only once.

Key:
Experiment in all cases: CTG-3D luminescence at 96 h relative to day-0 seeding control (ratio to day 0); higher = more growth / less cytotoxicity
[1] = tested on: HCI-017.E2 (organoid from an ER-positive breast cancer xenograft)
Experimental: (§1)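 PDxO 3D drug screen (set 2), 8-point dose, 96 h; CTG-3D luminescence normalised to day-0 seeding control (mean of 4 wells each).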

[2] = tested on: HCI-024 (organoid from a breast cancer xenograft)
Experimental: as §1

[3] = tested on: HCI-025 (organoid from a breast cancer xenograft)
Experimental: as §1

[4] = tested on: MDA-MB-231
Experimental: as §1

CC/C(=C(\c1ccc(O)cc1)c1ccc(OCCN(C)C)cc1)c1ccccc1 [4-hydroxytamoxifen]
CTG-3D luminescence at 96 h
Conditions | 12.5 pM | 0.00025 µM | 0.005 µM | 0.1 µM | 1 µM | 10 µM | 100 µM | 625 fM
[1] | 2.22 | 2.39 | 2.07 | 2.2 | 1.83 | 1.95 | 0.0156 | 2.35
[4] | 5.74 and 4.89 | 5.63 and 4.98 | 5.56 and 5.21 | 5.42 and 5.04 | 5.45 and 5.21 | 4.78 and 4.53 | 0.0254 and 0.0304 | 5.5 and 5.05

CTG-3D luminescence at 96 h
Conditions | 12.5 pM | 0.00025 µM | 0.005 µM | 0.1 µM | 1 µM | 10 µM | 100 µM | 625 fM
[1], days in culture: 85 | 2.08 | 1.78 | 1.81 | 2.09 | 1.49 | 1.08 | 0.0372 | 2.06
[2], days in culture: 202 | 1.48 | 1.18 | 1.56 | 1.67 | 0.953 | 1.09 | 0.00631 | 1.74
[2], days in culture: 231 | 1.05 | 1.07 | 1.18 | 0.978 | 0.782 | 0.83 | 0.00137 | 1.07
[2], days in culture: 254 | 1.94 | 1.16 | 1.05 | 1.38 | 1.28 | 0.958 | 0.00459 | 0.909
[3], days in culture: 175 | 1.51 | 1.63 | 1.71 | 2.13 | 2.44 | 1.28 | 0.0136 | 1.6
[3], days in culture: 189 | 2.13 | 1.92 | 1.2 | 1.78 | 1.33 | 0.709 | 0.00308 | 2.68
[3], days in culture: 212 | 1.57 | 0.956 | 1.22 | 1.48 | 0.341 | 1.41 | 0.0176 | 1.14
[3], days in culture: 224 | 2.08 | 1.8 | 1.69 | 1.65 | 2.16 | 0.525 | 0.00432 | 1.85
